Legend:
blackgrass = assay: Test B pre/postemergence blackgrass; type: in vivo, Alopecurus myosuroides
In short: (§1)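 Herbicidal effect was estimated by eye on a ten-point control scale after plants spent twelve to sixteen days in a greenhouse following soil or foliar treatment. Foliar sprays targeted plants at one to four leaves; all doses were formulated in a non-phytotoxic solvent with surfactant.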

cocklebur = assay: Test B pre/postemergence cocklebur; type: in vivo, Xanthium strumarium
In short: as §1

corn = assay: Test B pre/postemergence corn; type: in vivo, Zea mays
In short: as §1

crabgrass = assay: Test B pre/postemergence crabgrass; type: in vivo, Digitaria sanguinalis
In short: as §1

morningglory = assay: Test B pre/postemergence morningglory; type: in vivo, Ipomoea hederacea
In short: as §1

pigweed = assay: Test B pre/postemergence pigweed; type: in vivo, Amaranthus retroflexus
In short: as §1

rape = assay: Test B pre/postemergence rape; type: in vivo, Brassica napus
In short: as §1

sugar beet = assay: Test B pre/postemergence sugar beet; type: in vivo, Beta vulgaris
In short: as §1

velvetleaf = assay: Test B pre/postemergence velvetleaf; type: in vivo, Abutilon theophrasti
In short: as §1

wheat = assay: Test B pre/postemergence wheat; type: in vivo, Triticum aestivum
In short: as §1

wild oat = assay: Test B pre/postemergence wild oat; type: in vivo, Avena fatua
In short: as §1

purple nutsedge = assay: Test B pre/postemergence purple nutsedge; type: in vivo, Cyperus rotundus
In short: as §1

rice = assay: Test B flood test rice; type: in vivo, Oryza sativa
In short: (§2)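 Read-out is a visual response score from 0 (no effect) to 10 (complete control), assigned by comparison with untreated controls. Treatment was applied at the 2-leaf stage, and plants stayed in the greenhouse for twelve to sixteen days before scoring.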

smallflower flatsedge = assay: Test B flood test smallflower flatsedge; type: in vivo, Cyperus difformis
In short: as §2

duck salad = assay: Test B flood test duck salad; type: in vivo, Heteranthera limosa
In short: as §2

bamyardgrass = assay: Test B flood test barnyardgrass; type: in vivo, Echinochloa crus-galli
In short: as §2

[1] = Postemergence, Rate 62 g/ha, scale 0 to 10, 0 is no effect, 10 is complete control
[2] = Postemergence, Rate 125 g/ha, scale of 0 to 10 where 0 is no effect and 10 is complete control
[3] = Postemergence, Rate 250 g/ha, scale of 0 to 10, 0 is no effect, 10 is complete control
[4] = Postemergence, Rate 500 g/ha, scale of 0 to 10 where 0 is no effect and 10 is complete control
[5] = Preemergence, Rate 62 g/ha, scale of 0 to 10 where 0 is no effect and 10 is complete control
[6] = Preemergence, Rate 125 g/ha, scale of 0 to 10 where 0 is no effect and 10 is complete control
[7] = Preemergence, Rate 250 g/ha, scale 0 to 10 (0 no effect, 10 complete control)
[8] = Preemergence, Rate 500 g/ha, scale of 0 to 10 where 0 is no effect and 10 is complete control
[9] = Rate 62 g/ha, flood test species, Pre-emergence, visual evaluation after twelve to sixteen days
[10] = Rate 125 g/ha, under heading Pre-emergence, flood test species, visual evaluation after twelve to sixteen days
[11] = Rate 250 g/ha, Pre-emergence (flood test species), scale 0 to 10, 0 is no effect, 10 is complete control
[12] = Rate 500 g/ha, Pre-emergence section of Table B, 0 to 10 scale (0 no effect, 10 complete control)

CC(C)N(C(=O)n1oc(=O)n(CC(=O)C2CC2)c1=O)c1ccc(Cl)cc1 [Compound 639]
Plant response rating, Blackgrass (blackgrass; [1]): 0
Plant response rating, Blackgrass (blackgrass; [2]): 0
Blackgrass plant response rating (blackgrass; [3]): 2
Plant response rating, Blackgrass (blackgrass; [4]): 6
Blackgrass plant response rating (blackgrass; [5]): 0
Blackgrass plant response rating (blackgrass; [6]): 0
Plant response rating, Blackgrass (blackgrass; [7]): 2
Plant response rating, Blackgrass (blackgrass; [8]): 2
Plant response rating, Cocklebur (cocklebur; [1]): 0
Plant response rating, Cocklebur (cocklebur; [2]): 0
Cocklebur plant response rating (cocklebur; [3]): 2
Plant response rating, Cocklebur (cocklebur; [4]): 2
Cocklebur plant response rating (cocklebur; [5]): 0
Cocklebur plant response rating (cocklebur; [6]): 0
Plant response rating, Cocklebur (cocklebur; [7]): 0
Plant response rating, Cocklebur (cocklebur; [8]): 2
Plant response rating, Corn (corn; [1]): 0
Plant response rating, Corn (corn; [2]): 0
Corn plant response rating (corn; [3]): 0
Plant response rating, Corn (corn; [4]): 0
Corn plant response rating (corn; [5]): 0
Corn plant response rating (corn; [6]): 0
Plant response rating, Corn (corn; [7]): 0
Plant response rating, Corn (corn; [8]): 0
Plant response rating, Crabgrass (crabgrass; [1]): 0
Crabgrass plant response rating (crabgrass; [3]): 2
Plant response rating, Crabgrass (crabgrass; [4]): 8
Crabgrass plant response rating (crabgrass; [5]): 7
Crabgrass plant response rating (crabgrass; [6]): 7
Plant response rating, Crabgrass (crabgrass; [7]): 9
Plant response rating, Crabgrass (crabgrass; [8]): 9
Plant response rating, Morningglory (morningglory; [1]): 0
Plant response rating, Morningglory (morningglory; [2]): 3
Morningglory plant response rating (morningglory; [3]): 7
Plant response rating, Morningglory (morningglory; [4]): 7
Morningglory plant response rating (morningglory; [5]): 0
Morningglory plant response rating (morningglory; [6]): 0
Plant response rating, Morningglory (morningglory; [7]): 0
Plant response rating, Morningglory (morningglory; [8]): 0
Plant response rating, Redroot pigweed (pigweed; [1]): 3
Plant response rating, Redroot pigweed (pigweed; [2]): 4
Redroot pigweed plant response rating (pigweed; [3]): 4
Redroot pigweed plant response rating (pigweed; [5]): 0
Redroot pigweed plant response rating (pigweed; [6]): 0
Plant response rating, Redroot pigweed (pigweed; [7]): 2
Plant response rating, Redroot pigweed (pigweed; [8]): 10
Plant response rating, Rape (rape; [1]): 0
Plant response rating, Rape (rape; [2]): 0
Rape plant response rating (rape; [3]): 0
Plant response rating, Rape (rape; [4]): 3
Rape plant response rating (rape; [5]): 0
Rape plant response rating (rape; [6]): 0
Plant response rating, Rape (rape; [7]): 3
Plant response rating, Rape (rape; [8]): 10
Plant response rating, Sugarbeets (sugar beet; [1]): 0
Plant response rating, Sugarbeets (sugar beet; [2]): 0
Sugarbeets plant response rating (sugar beet; [3]): 0
Sugarbeets plant response rating (sugar beet; [5]): 0
Sugarbeets plant response rating (sugar beet; [6]): 0
Plant response rating, Sugarbeets (sugar beet; [7]): 0
Plant response rating, Sugarbeets (sugar beet; [8]): 6
Plant response rating, Velvetleaf (velvetleaf; [1]): 0
Plant response rating, Velvetleaf (velvetleaf; [2]): 0
Velvetleaf plant response rating (velvetleaf; [3]): 0
Velvetleaf plant response rating (velvetleaf; [5]): 0
Velvetleaf plant response rating (velvetleaf; [6]): 0
Plant response rating, Velvetleaf (velvetleaf; [7]): 0
Plant response rating, Velvetleaf (velvetleaf; [8]): 3
Plant response rating, Wheat (wheat; [1]): 0
Plant response rating, Wheat (wheat; [2]): 0
Wheat plant response rating (wheat; [3]): 0
Wheat plant response rating (wheat; [5]): 0
Wheat plant response rating (wheat; [6]): 0
Plant response rating, Wheat (wheat; [7]): 0
Plant response rating, Wheat (wheat; [8]): 0
Plant response rating, Wild oats (wild oat; [1]): 1
Plant response rating, Wild oats (wild oat; [2]): 1
Wild oats plant response rating (wild oat; [3]): 1
Wild oats plant response rating (wild oat; [5]): 0
Wild oats plant response rating (wild oat; [6]): 0
Plant response rating, Wild oats (wild oat; [7]): 0
Plant response rating, Wild oats (wild oat; [8]): 3
Plant response rating, Nutsedge (purple nutsedge; [1]): 0
Plant response rating, Nutsedge (purple nutsedge; [2]): 0
Nutsedge plant response rating (purple nutsedge; [5]): 0
Nutsedge plant response rating (purple nutsedge; [6]): 0
Plant response rating, Nutsedge (purple nutsedge; [7]): 0
Plant response rating, Nutsedge (purple nutsedge; [8]): 0
Plant response rating, Rice (0 to 10 scale, 0 is no effect, 10 is complete control) (rice; [9]): 0
Rice plant response rating (0 to 10 scale, 0 is no effect, 10 is complete control) (rice; [10]): 0
Rice plant response rating (rice; [11]): 0
Rice plant response rating (rice; [12]): 0
Plant response rating, S. Flatsedge (0 to 10 scale, 0 is no effect, 10 is complete control) (smallflower flatsedge; [9]): 0
S. Flatsedge plant response rating (0 to 10 scale, 0 is no effect, 10 is complete control) (smallflower flatsedge; [10]): 0
S. Flatsedge plant response rating (smallflower flatsedge; [11]): 0
S. Flatsedge plant response rating (smallflower flatsedge; [12]): 0
Plant response rating, Ducksalad (0 to 10 scale, 0 is no effect, 10 is complete control) (duck salad; [9]): 0
Ducksalad plant response rating (0 to 10 scale, 0 is no effect, 10 is complete control) (duck salad; [10]): 0
Ducksalad plant response rating (duck salad; [11]): 0
Ducksalad plant response rating (duck salad; [12]): 0
Plant response rating, Barnyardgrass (0 to 10 scale, 0 is no effect, 10 is complete control) (bamyardgrass; [9]): 0
Barnyardgrass plant response rating (0 to 10 scale, 0 is no effect, 10 is complete control) (bamyardgrass; [10]): 0
Barnyardgrass plant response rating (bamyardgrass; [11]): 0
Barnyardgrass plant response rating (bamyardgrass; [12]): 0

Reference: patent US6737383B1, “Herbicidal oxadiazolidines” (priority 1999, dated 2004)
